Active and inactive are the calls of the source. No cut-off for these calls is given here.
Legend:
[1] = Chronic toxicity in rat assessed as decrease in erythrocytes in blood administered intravenously as pluronic F127 formulation at 4 intervals for 21 days and observed 3 weeks post last injection relative to control; format: cell-based; settings: iv, 2544 h, time 106 day
PC-3 = assay: Effect on cell stiffness in human PC-3 cells assessed as increase in young's modulus at 2.8 nM measured after 1 hr by topography based scanning ion-conductance microscopic analysis; format: functional
[2] = Chronic toxicity in rat assessed as change in relative heart mass at 15 to 18.75 mg/kg, iv administered as pluronic F127 formulation for 4 intervals of 21 days and observed 3 weeks post last injection relative to control; format: organism-based; settings: in vivo, 2544 h, dose 15-18.75 mg/kg, time 106 day
[3] = Acute toxicity in ICR mouse assessed as liver damage at 183 to 960 mg/kg, iv administered as pluronic F127 formulation and measured for 14 days; format: organism-based; settings: in vivo, 336 h, dose 183-960 mg/kg, time 14 day
[4] = AUC (0 to infinity) in Albino Wistar rat at 15 mg/kg, iv administered as pluronic F127 formulation measured upto 72 hrs by high-performance liquid chromatography tandem mass spectrometric analysis; format: ADME, organism-based; design: dose 15 mg/kg, time < 72 hrs, route iv; settings: in vivo
[5] = Chronic toxicity in rat assessed as reduction in body weight at 15 to 18.75 mg/kg, iv administered as pluronic F127 formulation at 4 intervals for 21 days and observed on 77 th day; format: organism-based; settings: in vivo, 1848 h, dose 15-18.75 mg/kg, time 77 day
[6] = Clearance in Albino Wistar rat at 15 mg/kg, iv administered as pluronic F127 formulation measured upto 72 hrs by high-performance liquid chromatography tandem mass spectrometric analysis; format: ADME, organism-based; settings: in vivo

For `CC(=O)O[C@@]12CO[C@@H]1C[C@H](O)[C@@]1(C)C(=O)[C@H](O)C3=C(C)[C@@H](OC(=O)[C@H](OC(=O)CCCc4cn(CCCNC(=O)[C@H](Cc5ccc(O)cc5)NC(=O)[C@H](Cc5ccccc5)NC(=O)CCC(=O)NCCCCCC(=O)N(CCCC[C@H](NC(=O)N[C@@H](CCC(=O)O)C(=O)O)C(=O)O)Cc5cccc(Cl)c5)nn4)[C@@H](NC(=O)OC(C)(C)C)c4ccccc4)C[C@@](O)([C@@H](OC(=O)c4ccccc4)[C@H]21)C3(C)C`, the Activity [1] was “Toxic”, the Activity (PC-3) was “Active” and the Activity [2] was “Toxic”. The Activity [3] was “Toxic”, the AUC(0-inf) [4] was 34000 ng·h/mL and the Activity [5] was “Toxic”. For the same compound, the clearance [6] was 9.15 mL/min/kg.

Source: ChEMBL document CHEMBL5131389, “PSMA-targeted small-molecule docetaxel conjugate: Synthesis and preclinical evaluation” (Eur J Med Chem, 2022)
